Assays:
[1] = system: H2O2 production in human monocytes and macrophages; test: Production of H2O2 in silica-stimulated human monocytes and macrophages; assay type: cell-based; settings: 10 μg/ml, 1 hour, 100 μg/ml silica, FIG. 5
Experimental: Normal human peripheral blood was heparin-treated and diluted with equal amount of Hank's balanced salt solution (HBSS: Ca^2+ and Mg^2+ free). The diluted blood was put into a centrifuge tube containing therein Ficoll-Hypaque(Sigma, St. Louis, Mo., U.S.A.) layer having a density of 1.077 piled up on Ficoll-Hypaque layer having a density of 1.119, and then centrifuged at 700×g for 30 minutes to obtain monocytes from the layer between Ficoll-Hypaque layer having a density of 1.077 and serum layer, and neutrophils from the layer between Ficoll-Hypaque layer having a density of 1.077 and that having a density of 1.119. The separated cells were washed twice with 4° C. HBSS(Ca^2+ and Mg^2+ free) and suspended in RPMI 1640 medium(Gibco, Grand Island, N.Y., U.S.A.) containing 10% fetal bovine serum(FBS, Hyclone, Logan, Utah, U.S.A.). […] The amount of H2 O2 was determined by a microassay employing 96-well microplate as follows. […] When the incubation was completed, 3M NaOH was added to the wells in an amount of 25 μl/well to stop the reaction and O.D. was measured at 620 nm by using ELISA reader(Dynatech Lab. Inc.) to determine the change of colors with respect to the oxidation of phenol. The amount of H2 O2 was determined by employing a standard curve prepared by diluted H2 O2 (Sigma). […]

[2] = system: human monocytes and macrophages; test: Cytotoxicity on human monocytes and macrophages (MTT); assay type: cell-based; settings: concentration lower than 10 μg/ml
Experimental: Normal human peripheral blood was heparin-treated and diluted with equal amount of Hank's balanced salt solution (HBSS: Ca^2+ and Mg^2+ free). The diluted blood was put into a centrifuge tube containing therein Ficoll-Hypaque(Sigma, St. Louis, Mo., U.S.A.) layer having a density of 1.077 piled up on Ficoll-Hypaque layer having a density of 1.119, and then centrifuged at 700×g for 30 minutes to obtain monocytes from the layer between Ficoll-Hypaque layer having a density of 1.077 and serum layer, and neutrophils from the layer between Ficoll-Hypaque layer having a density of 1.077 and that having a density of 1.119. The separated cells were washed twice with 4° C. HBSS(Ca^2+ and Mg^2+ free) and suspended in RPMI 1640 medium(Gibco, Grand Island, N.Y., U.S.A.) containing 10% fetal bovine serum(FBS, Hyclone, Logan, Utah, U.S.A.). The suspensions were added to the wells of 24-well incubation plate(Costar, Cambridge, Mass., U.S.A.) and incubated at 37° C. for 2 hours to obtain monocytes, macrophages and neutrophils. […] The cytotoxicity of acanthoic acid was determined by the following procedures. […] 100 μl each of acidified isopropanol(0.04N HCl in isopropanol) was added to the cells in each well to elute formazan produced by the living cells, and optical density (O.D.) was determined at 540 nm by using an ELISA reader (Titertek multiskan Mcc/340)(FIG. 1). […]

Q: Which results are given for `C=C[C@@]1(C)CC=C2C(CCC3[C@](C)(C(=O)O)CCC[C@@]23C)C1` (single isomer, unassigned; (-)) [acanthoic acid, (-)-pimara-9(11),15-diene-19-oic acid]?
A: amount of H2O2 [1]: decrease significantly; cytotoxicity [2]: no cytotoxicity

Source: patent US5900434A, “Method for inhibiting the production of interleukin-1 or tumor necrosis factor-α by administering acanthoic acid” (Korea Institute of Science and Technology, priority 1994, dated 1999)
